Data from patent US7345091B2, “Carotenoid ether analogs or derivatives for the inhibition and amelioration of disease” (Cardax Pharmaceuticals, Inc., priority 2002, dated 2008).
Where a name gives a salt, the structure may show the parent alone.

Experiments:
[1] = tested on: male New Zealand white rabbits; assay: Experimental infarct size after parenteral administration; assay type: in vivo, rabbit
Description: (§1) The influence of parenteral administration of the disodium disuccinate astaxanthin derivative (XVI) on induced infarct size and induced levels of circulating C-reactive protein (CRP) in rabbits was investigated using the methods of Barrett et al. (2002) with slight modifications. The purpose of the current study was to investigate the ability of the disodium disuccinate astaxanthin derivative (XVI) to reduce inflammation as measured by CRP in the setting of experimental myocardial ischemia-reperfusion injury in the rabbit heart. […] Therefore, reduction of circulating CRP levels, together with the reduction(s) in infarct size previously noted with Cardax™ in rodents, would form a powerful anti-inflammatory therapeutic modality in the acute coronary syndrome setting.
In brief, male New Zealand white rabbits (2.25-2.5 kg) were used for the study. The acute phase inflammatory response was induced by subcutaneous injection of four aliquots (0.5 mL each) of 1% croton oil in corn oil beginning on the second day of pre-treatment with Cardax™. […]
At the completion of the reperfusion phase of the protocol, the hearts were removed and cannulated by the aorta on the Langendorff perfusion apparatus. […] Total area at risk was expressed as a percentage of the left ventricle. Infarct size was then expressed as a percentage of area at risk.

[2] = tested on: connexin 43 protein expression; assay: Induction of connexin 43 protein expression (Western blot, 96 hours); assay type: cell-based, mouse; conditions: 96 hours
Procedure: In brief, mouse embryonic fibroblast CH3/10T^1/2 cells were treated with the following formulations in a 4 mL cell culture system with media containing 2% calf serum: • 1. TTNPB [p-(E)-2-(5,6,7,8-tetrahydro-5,5,8,8-tetramethyl-2-napthyl) propenyl benzoic acid] 10^−8 M in acetone [positive control for connexin 43 upregulation (4 μL in 4 mL] • 2. Disodium salt disuccinate astaxanthin derivative XVI/H2O at 10^−5 M (40 μl in 4 mL) • 3. Disodium salt disuccinate astaxanthin derivative XVI/H2O at 10^−6 M (4 μl in 4 mL) • 4. Disodium salt disuccinate astaxanthin derivative XVI/H2O at 10^−7 M (1:10 dilution and 4 μl in 4 mL) • 5. Disodium salt disuccinate astaxanthin derivative XVI H2O/ethanol [EtOH] formulation at 10^-5 M (40 μl in 4 mL) • 6. Disodium salt disuccinate astaxanthin derivative XVI H2O/EtOH formulation at 10^−6 M (4 μl in 4 mL) • 7. Sterile H2O control (40 μl in 4 mL) • 8. Sterile H2O/EtOH control (20 μL EtOH, 20 μL H2O in 4 mL) • 9. Media control (4 mL)
Cells were harvested after 96 hours incubation with test compounds and control solutions. All media solutions were identical in color, however after treatment with the disodium salt disuccinate astaxanthin derivative XVI at both 10^−5 dilutions, the color subjectively changed to an orange-red color. Cells treated with TTNPB appeared striated with light microscopy, evidence of differentiation to myocytes, an expected result in this cell culture system. After harvest and pelleting of cells, tubes containing both 10^−5 disodium salt disuccinate astaxanthin derivative XVI solutions were bright red; both 10^−6 dilution tubes were a pink color. As documented previously for other colored carotenoids, this was subjective evidence for cellular uptake of the test compounds.
Cells were then lysed, and 50 μg of each protein was electrophoresed on a 10% polyacrylamide gel. The gel was then transferred to a nitrocellulose filter. Total protein was assayed with Coomassie blue staining (FIG. 29; lanes 6, 7, and 9 were smeared secondary to gel transfer, and were not included in the quantitative comparison [FIG. 31)]. […]

C-reactive protein (CRP) = assay: Circulating C-reactive protein levels (ELISA) in croton oil-stimulated infarct model; assay type: in vivo, rabbit; conditions: 50 mg/kg IV for 4 days; 1% croton oil; sample at time of reperfusion; controls +23.5%
Description: as §1
In brief, male New Zealand white rabbits (2.25-2.5 kg) were used for the study. The acute phase inflammatory response was induced by subcutaneous injection of four aliquots (0.5 mL each) of 1% croton oil in corn oil beginning on the second day of pre-treatment with Cardax™. Either Cardax™ (at 50 mg/kg IV by ear vein injection) in water or equal volumes of sterile saline were given once per day for 4 days prior to experimental infarction on day 5. The time course of increases in circulating CRP levels were obtained as described previously (Barret et al. 2002), using an ELISA-based method with anti-rabbit CRP antibodies. […]

SMILES: CC1=C(/C=C/C(C)=C/C=C/C(C)=C/C=C/C=C(C)/C=C/C=C(C)/C=C/C2=C(C)C(=O)C(OC(=O)CCC(=O)O)CC2(C)C)C(C)(C)CC(OC(=O)CCC(=O)O)C1=O (racemic) [XVI, Disodium Salt of the Disuccinic Acid Ester of Astaxanthin]
- reductions in infarct size ([1]; 50 mg/kg IV once per day for 4 days, 30 min occlusion / 180 min reperfusion): approximately 55.4%
- increase in infarct size reduction in rabbit vs rodents ([1]; same dose and identical pre-treatment schedule): 38%
- induction of connexin 43 protein expression ([2]; water 10^-5 to 10^-7 M and EtOH/H2O formulations, vs water and ethanol/water controls): induced connexin 43 protein expression
- connexin 43 induction level compared with TTNPB positive control ([2]; in water at concentrations greater than 10^-7 and in ethanol/water at 10^-5): higher inductions levels than the positive TTNPB control
- mean change in circulating CRP levels from baseline (C-reactive protein (CRP)): −15.7%
